Test results published in ChEMBL document CHEMBL1201862, “PubChem BioAssay data set” (2004).
Calls of active or inactive are those of the source.

What was measured:
[1] = (§1) Counterscreen for antagonists of the orexin 1 receptor (OX1R; HCRTR1): Fluorescence-based cell-based high throughput dose response assay to identify antagonists of the parental CHO cell line. [Related pubchem assays (depositor defined):AID434989, AID435008, AID463079, AID485270, AID492963, AID492964, AID492965, AID493232, AID504699, AID504701]; assay type: functional
[2] = biological target: T1, Orexin/Hypocretin receptor type 1 (Homo sapiens, UniProt O43613); assay: Homogeneous Time Resolved Fluorescence (HTRF)-based cell-based high throughput dose response assay for antagonists of the orexin 1 receptor (OX1R; HCRTR1). [Related pubchem assays (depositor defined):AID434989, AID435008, AID463079, AID485270, AID492963, AID492964, AID492965, AID493232, AID504717, AID504718]; assay type: functional
T1 sequence (O43613 whole entry): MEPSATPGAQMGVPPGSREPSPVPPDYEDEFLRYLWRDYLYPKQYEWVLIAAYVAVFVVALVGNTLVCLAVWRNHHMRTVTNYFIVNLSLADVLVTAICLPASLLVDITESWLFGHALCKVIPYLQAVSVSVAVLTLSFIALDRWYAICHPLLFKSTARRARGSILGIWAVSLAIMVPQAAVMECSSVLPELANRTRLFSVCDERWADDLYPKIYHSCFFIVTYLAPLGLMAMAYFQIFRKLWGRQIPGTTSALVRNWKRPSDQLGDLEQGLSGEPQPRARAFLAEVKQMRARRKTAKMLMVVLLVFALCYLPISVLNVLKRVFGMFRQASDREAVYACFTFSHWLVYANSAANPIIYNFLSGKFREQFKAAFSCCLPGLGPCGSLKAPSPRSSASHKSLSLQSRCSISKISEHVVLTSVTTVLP

[3] = test system: CHO-K1; assay: as §1, with “Homogeneous time resolved fluorescence (HTRF)-based” for “Fluorescence-based”, “cell-based” for “cell-based high throughput”, “CHO-K1” for “CHO”; assay type: functional; settings: Cricetulus griseus;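 also: potency for inhibition of ATP-stimulated IP1 production as antagonists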
[4] = biological target: T2, Orexin receptor type 2 (Homo sapiens, UniProt O43614); assay: Counterscreen assay for antagonists of the orexin 1 receptor (OX1R; HCRTR1): Fluorescence-based cell-based dose response assay for antagonists of the orexin 2 receptor (OX2R; HCRTR2), run by assay provider.; assay type: functional
T2 sequence (O43614 whole entry): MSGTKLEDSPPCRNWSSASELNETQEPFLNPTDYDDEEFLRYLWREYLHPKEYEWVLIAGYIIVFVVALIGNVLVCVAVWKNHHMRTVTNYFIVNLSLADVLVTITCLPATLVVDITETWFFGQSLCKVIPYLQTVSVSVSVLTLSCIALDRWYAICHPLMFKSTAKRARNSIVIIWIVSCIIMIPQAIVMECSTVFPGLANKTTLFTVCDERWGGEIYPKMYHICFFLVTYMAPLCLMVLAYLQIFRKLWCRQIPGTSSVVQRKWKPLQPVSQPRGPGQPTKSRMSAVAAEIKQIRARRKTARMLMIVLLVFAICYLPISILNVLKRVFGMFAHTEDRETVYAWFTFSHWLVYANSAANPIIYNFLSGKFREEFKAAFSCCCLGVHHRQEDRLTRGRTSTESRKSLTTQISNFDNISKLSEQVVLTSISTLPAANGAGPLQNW

[5] = biological target: T2, Orexin receptor type 2; assay: Counterscreen assay for antagonists of the orexin 1 receptor (OX1R; HCRTR1): Homogeneous Time Resolved Fluorescence (HTRF)-based cell-based dose response assay for antagonists of the orexin 2 receptor (OX2R; HCRTR2), run by assay provider.; assay type: functional
[6] = biological target: T1, Orexin/Hypocretin receptor type 1; assay: Fluorescence-based cell-based high throughput dose response assay for antagonists of the orexin 1 receptor (OX1R; HCRTR1). [Related pubchem assays (depositor defined):AID434989, AID435008, AID463079, AID485270, AID492963, AID492964, AID492965, AID493232, AID504717, AID504718]; assay type: functional
[7] = biological target: 72 kDa type IV collagenase (Homo sapiens, UniProt P08253); assay: Dose Response validation of uHTS RPN11 inhibitor hits using a MMP-2 Fluorescence assay.; assay type: functional
[8] = biological target: 26S proteasome non-ATPase regulatory subunit 14 (Homo sapiens, UniProt O00487); assay: inhibition of proteasome subunit RPN11 – biochemical, fluorescence polarization, uHTS hits, confirmation (AID 602368); assay type: functional
[9] = biological target: Prothrombin (Bos taurus, UniProt P00735); assay: thrombin protease inhibitors – biochemical, fluorescence polarization, uHTS hits, dose response (AID 602369); assay type: functional
[10] = test system: HEK293; assay: membrane integrity loss in HEK cells – cell-based, fluorescence, cytotoxicity control for IDE activator project, dose response (AID 588440); assay type: functional; settings: Homo sapiens;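 also: cytotoxicity by LDH release measuring loss of membrane integrity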
[11] = test system: HEK293; assay: optical interference in Abeta FP readout, dose response, artefact control for IDE activator project, biochemical, fluorescence polarization (AID 588442); assay type: functional, cell-based; settings: Homo sapiens
[12] = biological target: T3, Insulin-degrading enzyme (Homo sapiens, UniProt P14735); assay: cellular IDE activation of Abeta substrate cleavage – fluorescence polarization, HEK cells, dose response (AID 588439); assay type: functional, cell-based
T3 sequence (P14735 whole entry): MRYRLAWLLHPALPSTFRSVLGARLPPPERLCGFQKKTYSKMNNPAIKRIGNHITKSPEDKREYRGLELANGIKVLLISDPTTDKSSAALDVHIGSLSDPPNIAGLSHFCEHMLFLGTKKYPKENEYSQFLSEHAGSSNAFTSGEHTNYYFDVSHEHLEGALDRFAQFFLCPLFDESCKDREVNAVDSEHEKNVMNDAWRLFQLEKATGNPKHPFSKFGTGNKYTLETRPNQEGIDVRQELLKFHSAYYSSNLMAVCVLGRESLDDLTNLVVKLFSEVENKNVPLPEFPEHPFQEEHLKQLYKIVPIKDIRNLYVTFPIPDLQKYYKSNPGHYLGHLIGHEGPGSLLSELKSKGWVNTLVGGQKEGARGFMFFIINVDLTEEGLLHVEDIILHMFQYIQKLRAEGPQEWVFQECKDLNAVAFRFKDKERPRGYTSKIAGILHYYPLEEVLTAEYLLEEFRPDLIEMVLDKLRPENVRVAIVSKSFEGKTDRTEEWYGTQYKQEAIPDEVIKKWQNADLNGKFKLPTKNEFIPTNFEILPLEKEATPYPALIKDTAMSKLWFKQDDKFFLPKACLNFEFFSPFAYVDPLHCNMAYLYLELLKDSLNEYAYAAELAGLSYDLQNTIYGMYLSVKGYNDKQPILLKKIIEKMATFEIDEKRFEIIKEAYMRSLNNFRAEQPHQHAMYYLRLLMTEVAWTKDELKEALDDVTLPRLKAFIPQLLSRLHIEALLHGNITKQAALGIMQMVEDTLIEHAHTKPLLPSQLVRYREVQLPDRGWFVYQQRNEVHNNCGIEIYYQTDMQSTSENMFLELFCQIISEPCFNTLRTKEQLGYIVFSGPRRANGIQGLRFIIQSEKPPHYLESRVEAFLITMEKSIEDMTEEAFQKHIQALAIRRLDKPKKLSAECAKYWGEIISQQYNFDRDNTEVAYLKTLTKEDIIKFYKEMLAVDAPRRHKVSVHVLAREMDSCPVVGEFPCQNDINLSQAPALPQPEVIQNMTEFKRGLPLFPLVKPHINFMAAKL

[13] = biological target: T3, Insulin-degrading enzyme; assay: recombinant IDE activation, cell-free – biochemical, fluorescence polarization, counter-screen for IDE activator project, dose response (AID 588681)
[14] = biological target: T4, Zinc finger protein mex-5 (Caenorhabditis elegans, UniProt Q9XUB2); assay: potency of MEX-5 RNA-binding blockers – biochemical, C. elegans, fluorescence polarization, dose response (AID 1960)
T4 sequence (Q9XUB2 whole entry): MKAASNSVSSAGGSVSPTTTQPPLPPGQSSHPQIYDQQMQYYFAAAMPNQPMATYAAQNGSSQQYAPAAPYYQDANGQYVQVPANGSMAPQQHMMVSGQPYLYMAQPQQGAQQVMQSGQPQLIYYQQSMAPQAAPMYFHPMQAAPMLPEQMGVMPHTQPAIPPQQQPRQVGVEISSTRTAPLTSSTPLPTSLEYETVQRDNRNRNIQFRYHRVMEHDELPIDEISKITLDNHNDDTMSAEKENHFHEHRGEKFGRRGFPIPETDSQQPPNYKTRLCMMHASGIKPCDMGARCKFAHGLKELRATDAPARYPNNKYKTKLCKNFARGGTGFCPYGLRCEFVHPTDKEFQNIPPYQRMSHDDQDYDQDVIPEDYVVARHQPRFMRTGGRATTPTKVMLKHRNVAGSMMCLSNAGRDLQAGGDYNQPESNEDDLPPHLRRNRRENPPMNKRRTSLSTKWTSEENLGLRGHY

[15] = biological target: UDP-galactopyranose mutase (Mycobacterium tuberculosis, UniProt P9WIQ1); assay: Inhibitors of Mycobacterium tuberculosis UDP-galactopyranose mutase (UGM) enzyme Measured in Biochemical System Using Plate Reader - 2105-02_Inhibitor_Dose_CherryPick_Activity. [Related pubchem assays (depositor defined):AID504439]
[16] = biological target: Keap1/Nrf2 (Homo sapiens, UniProt Q14145); assay: disruptors of Keap1 binding to Nrf2 peptide – biochemical, fluorescence polarization, cherry-picked samples, dose response (AID 588683)
[17] = biological target: T5, ORF 73 (Human herpesvirus 8, UniProt O40947); assay: KSHV LANA DNA-binding disruption – biochemical, fluorescence polarization, cherry-picked samples, dose response (AID 504725); set-up: species or system Human gammaherpesvirus 8;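 also: fluorescence polarization of a labeled DNA duplex reporting LANA DNA binding; potency is for inhibitors that block LANA binding to the DNA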
T5 sequence (O40947 whole entry): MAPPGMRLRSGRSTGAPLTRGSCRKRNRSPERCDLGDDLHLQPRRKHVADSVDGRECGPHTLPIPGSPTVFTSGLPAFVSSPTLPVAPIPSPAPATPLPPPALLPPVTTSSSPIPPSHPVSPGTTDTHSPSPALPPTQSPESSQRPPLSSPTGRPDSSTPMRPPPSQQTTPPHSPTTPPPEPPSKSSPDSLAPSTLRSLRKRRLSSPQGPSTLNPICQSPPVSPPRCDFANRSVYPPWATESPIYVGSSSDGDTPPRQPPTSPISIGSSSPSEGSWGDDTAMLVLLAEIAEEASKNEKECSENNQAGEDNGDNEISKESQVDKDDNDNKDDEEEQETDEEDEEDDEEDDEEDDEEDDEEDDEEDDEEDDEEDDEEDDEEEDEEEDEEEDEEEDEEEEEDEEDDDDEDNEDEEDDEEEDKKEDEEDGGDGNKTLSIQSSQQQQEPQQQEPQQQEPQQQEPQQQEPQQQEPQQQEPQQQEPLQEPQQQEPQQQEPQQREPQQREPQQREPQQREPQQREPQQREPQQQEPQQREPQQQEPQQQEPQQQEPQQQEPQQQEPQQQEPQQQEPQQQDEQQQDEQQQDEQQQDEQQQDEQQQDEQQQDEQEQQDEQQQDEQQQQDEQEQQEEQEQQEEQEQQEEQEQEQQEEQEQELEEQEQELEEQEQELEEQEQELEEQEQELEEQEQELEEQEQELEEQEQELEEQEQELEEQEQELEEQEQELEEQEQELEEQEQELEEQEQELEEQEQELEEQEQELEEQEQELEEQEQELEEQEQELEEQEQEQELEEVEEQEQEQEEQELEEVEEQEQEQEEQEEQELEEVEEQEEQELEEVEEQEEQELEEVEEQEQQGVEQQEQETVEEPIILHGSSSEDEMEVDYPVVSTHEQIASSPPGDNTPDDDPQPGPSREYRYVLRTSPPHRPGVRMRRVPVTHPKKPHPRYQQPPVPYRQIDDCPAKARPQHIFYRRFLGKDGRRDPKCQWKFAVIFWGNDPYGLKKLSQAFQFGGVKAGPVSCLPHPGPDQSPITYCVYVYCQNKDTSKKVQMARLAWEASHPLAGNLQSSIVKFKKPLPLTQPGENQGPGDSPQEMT

[18] = biological target: T6, RNA-binding protein pos-1 (Caenorhabditis elegans, UniProt G5EF15); assay: disruptors of C. elegans POS-1 RNA interaction – biochemical, fluorescence polarization, dose response (AID 1964);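 also: purified POS-1 fused to maltose binding protein made in E. coli; potency of compounds blocking POS-1 binding to fluorescent RNA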
T6 sequence (G5EF15 whole entry): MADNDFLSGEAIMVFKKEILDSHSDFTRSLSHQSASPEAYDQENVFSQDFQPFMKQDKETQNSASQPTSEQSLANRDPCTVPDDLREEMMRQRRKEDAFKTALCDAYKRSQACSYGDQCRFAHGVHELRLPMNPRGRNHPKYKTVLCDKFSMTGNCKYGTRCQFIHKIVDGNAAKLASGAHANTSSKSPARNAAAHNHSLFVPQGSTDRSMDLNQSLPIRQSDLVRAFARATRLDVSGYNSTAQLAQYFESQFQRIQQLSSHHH

Sequence of Keap1/Nrf2 (Q16236 whole entry): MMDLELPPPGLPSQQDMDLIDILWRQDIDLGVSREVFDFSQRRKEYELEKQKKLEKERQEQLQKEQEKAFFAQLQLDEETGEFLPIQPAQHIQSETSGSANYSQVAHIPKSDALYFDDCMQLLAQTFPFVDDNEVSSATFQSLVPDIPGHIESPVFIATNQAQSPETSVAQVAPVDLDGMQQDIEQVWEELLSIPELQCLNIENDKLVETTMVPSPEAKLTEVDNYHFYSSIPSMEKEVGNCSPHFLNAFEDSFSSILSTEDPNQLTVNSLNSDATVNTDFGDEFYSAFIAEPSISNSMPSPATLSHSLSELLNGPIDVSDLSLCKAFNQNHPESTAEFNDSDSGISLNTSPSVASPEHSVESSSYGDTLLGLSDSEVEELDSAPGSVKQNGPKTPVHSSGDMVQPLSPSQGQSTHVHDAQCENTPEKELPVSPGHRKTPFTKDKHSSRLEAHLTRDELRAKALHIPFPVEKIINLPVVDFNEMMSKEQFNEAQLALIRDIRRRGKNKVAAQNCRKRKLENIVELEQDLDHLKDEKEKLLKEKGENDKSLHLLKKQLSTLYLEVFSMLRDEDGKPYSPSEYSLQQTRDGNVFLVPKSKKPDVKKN
Sequence of Keap1/Nrf2 (Q14145 whole entry): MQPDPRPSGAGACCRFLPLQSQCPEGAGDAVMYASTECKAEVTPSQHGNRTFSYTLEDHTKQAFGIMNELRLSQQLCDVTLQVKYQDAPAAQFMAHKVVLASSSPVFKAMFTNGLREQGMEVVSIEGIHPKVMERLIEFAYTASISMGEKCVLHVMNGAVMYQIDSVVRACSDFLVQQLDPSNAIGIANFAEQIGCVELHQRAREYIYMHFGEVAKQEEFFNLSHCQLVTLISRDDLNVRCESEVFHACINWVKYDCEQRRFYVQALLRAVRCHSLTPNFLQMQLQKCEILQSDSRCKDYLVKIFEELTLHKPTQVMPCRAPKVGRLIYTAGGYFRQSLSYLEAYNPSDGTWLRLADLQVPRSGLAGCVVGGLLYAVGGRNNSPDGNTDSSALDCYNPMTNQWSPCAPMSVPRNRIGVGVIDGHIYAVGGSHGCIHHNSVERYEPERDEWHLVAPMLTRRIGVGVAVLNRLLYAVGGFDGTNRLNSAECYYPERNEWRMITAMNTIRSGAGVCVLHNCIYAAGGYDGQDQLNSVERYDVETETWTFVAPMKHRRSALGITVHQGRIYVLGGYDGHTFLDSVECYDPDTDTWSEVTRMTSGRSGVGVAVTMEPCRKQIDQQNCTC
Sequence of UDP-galactopyranose mutase (P9WIQ1 whole entry): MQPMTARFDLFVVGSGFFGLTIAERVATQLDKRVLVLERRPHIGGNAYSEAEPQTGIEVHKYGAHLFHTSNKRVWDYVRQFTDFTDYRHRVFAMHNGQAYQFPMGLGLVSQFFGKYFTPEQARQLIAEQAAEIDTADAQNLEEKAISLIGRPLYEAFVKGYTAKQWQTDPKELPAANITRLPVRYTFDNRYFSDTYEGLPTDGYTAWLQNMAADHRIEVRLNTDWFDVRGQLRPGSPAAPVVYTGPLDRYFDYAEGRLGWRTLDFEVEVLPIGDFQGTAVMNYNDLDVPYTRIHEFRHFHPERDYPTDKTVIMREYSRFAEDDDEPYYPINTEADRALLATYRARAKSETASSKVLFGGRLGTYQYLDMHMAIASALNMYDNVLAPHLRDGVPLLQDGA
Sequence of 26S proteasome non-ATPase regulatory subunit 14 (O00487 whole entry): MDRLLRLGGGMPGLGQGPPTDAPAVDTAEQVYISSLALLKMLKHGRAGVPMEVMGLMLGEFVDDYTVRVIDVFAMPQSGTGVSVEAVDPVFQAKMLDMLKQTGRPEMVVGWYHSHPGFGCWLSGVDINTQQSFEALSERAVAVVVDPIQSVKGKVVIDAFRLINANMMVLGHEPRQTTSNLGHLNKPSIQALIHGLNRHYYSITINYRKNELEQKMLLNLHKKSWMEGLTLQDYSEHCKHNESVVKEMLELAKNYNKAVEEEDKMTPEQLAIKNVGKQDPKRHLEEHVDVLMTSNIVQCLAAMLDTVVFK
Sequence of 72 kDa type IV collagenase (P08253 whole entry): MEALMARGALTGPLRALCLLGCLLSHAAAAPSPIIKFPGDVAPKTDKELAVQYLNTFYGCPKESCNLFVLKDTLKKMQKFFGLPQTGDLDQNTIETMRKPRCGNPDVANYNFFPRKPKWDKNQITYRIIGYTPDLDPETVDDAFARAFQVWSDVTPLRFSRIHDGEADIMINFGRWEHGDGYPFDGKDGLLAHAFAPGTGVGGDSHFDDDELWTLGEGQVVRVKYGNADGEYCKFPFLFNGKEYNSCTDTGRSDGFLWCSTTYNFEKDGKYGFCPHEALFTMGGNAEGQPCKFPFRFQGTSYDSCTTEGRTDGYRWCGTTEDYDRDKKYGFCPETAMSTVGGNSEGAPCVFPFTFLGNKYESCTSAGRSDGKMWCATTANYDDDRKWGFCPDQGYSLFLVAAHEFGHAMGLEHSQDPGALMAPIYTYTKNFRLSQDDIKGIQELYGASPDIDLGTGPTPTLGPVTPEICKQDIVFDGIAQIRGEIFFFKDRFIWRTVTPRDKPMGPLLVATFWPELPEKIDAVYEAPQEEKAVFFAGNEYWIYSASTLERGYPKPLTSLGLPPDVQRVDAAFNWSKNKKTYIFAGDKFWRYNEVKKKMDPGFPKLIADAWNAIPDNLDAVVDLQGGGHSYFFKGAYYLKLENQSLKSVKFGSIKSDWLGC

SMILES	IC50 [1]	IC50 [2]	IC50 [3]	IC50 [4]	IC50 [5]	IC50 [6]	IC50 [10]	EC50 [11]	EC50 [12]	EC50 [13]	other results
O=c1c2ccccc2nc2c3ccccc3c(NCc3ccccn3)nn12	> 49.7 µM (inactive)	4.96 µM (active)	> 66.2 µM (inactive)	> 88.8 µM (inactive)	> 50 µM (inactive)	16.7 µM (inactive)	–	–	–	–	–
Cc1cc(C)c2cc3c(N)c(C(=O)Nc4c(C)nc(O)nc4O)sc3nc2c1	–	–	–	–	–	–	–	–	–	–	IC50 [7]: > 100 µM (inactive); IC50 [8]: 13.2 µM (active); IC50 [9]: 15.5 µM (active)
COc1cc(CNC2CCCC2)cc(OC)c1OC	–	–	–	–	–	–	> 89.1 µM (inactive)	> 54.7 µM (inactive)	> 54.7 µM (inactive)	> 54.7 µM (inactive)	–
COc1ccc(NC(=O)NS(=O)(=O)c2ccc(C)cc2)cn1	–	–	–	–	–	–	> 89.2 µM (inactive)	> 55.9 µM (inactive)	> 54.7 µM (inactive)	> 54.7 µM (inactive)	EC50 [14]: 2.38 µM (inconclusive); AC50 [15]: 90.9 µM (active); AC50 [16]: > 52 µM (inactive); AC50 [17]: 87.5 µM (active); EC50 [18]: 2.37 µM (inconclusive)
Cc1ccsc1/C=N/N=C1\C(=O)Nc2ccccc21	> 49.7 µM (inactive)	2.36 µM (active)	46.8 µM (inactive)	> 88.8 µM (inactive)	> 50 µM (inactive)	8.44 µM (active)	–	–	–	–	–
